The data set deals with Spodoptera littoralis larvae (2nd and 4th instars). Nature of the data set: Insecticidal bioassay screening (castor leaf dip). To be noted: for Toxic ratio: 72 h, fenoxycarb's LC50/compound's LC50 × 100; for LC50 (ppm): after 72 h of treatment. It counts as in vivo. The method, then:
Five concentrations (200, 100, 50, 25, 12.5 ppm) were designed for this synthetic compound and the reference fenoxycarb compound as the dynamic ingredients based on ppm via diluting the commercial formulation.
In this experiment, castor leaves are immersed in each of the previously prepared concentrations of the components for 10 seconds and then left to dry for 60 minutes. Larvae of the second and fourth instars of each checked strain are prepared with treated leaves in gauze-covered glass containers for 72 hrs. An untreated control is made in which leaves are dipped in triton x-100 and distilled water only. Then the preserved leaves were removed & fresh, untreated leaves were provided for 72 hours. Three replicates (10 larvae each) were checked for each concentration. Daily inspection was carried out for all treatments and mortality percentages were recorded 3 days (72 hours) after treatment. The average mortality percentage was corrected employing Abbott's formula. The corrected mortality rate for each of the previously synthesized compounds is statistically calculated according to Finney (1970). Through this rate, the corresponding concentration test lines (LDP lines) are assessed. Fifty and ninety percent mortality are determined, and the regression values for the checked products were previously evaluated.

The source of these data is US12180160B1, “1-(naphthalen-2-yloxy)-3-(piperidin-1-yl)propan-2-ol as an eco-friendly insecticidal agent against Spodoptera littoralis (boisd.)” (priority 2023, dated 2024).

Values after ≈ are worked out from the molar mass of the structure shown.

For `OC(COc1ccc2ccccc2c1)CN1CCCCC1` (stereo not drawn) [Compound 1, 1-(naphthalen-2-yloxy)-3-(piperidin-1-yl)propan-2-ol], the Toxic ratio is, setting by setting: (2nd instar larvae) 10.9; (4th instar larvae) 59.8. Also, the LC50 (as a rule, the concentration that kills 50% of the test population) (Spodoptera littoralis, foliar) is 25 µg/mL (≈ 87.7 µM). Also, the “morphological effect on Spodoptera littoralis (FIGURE)” value (after administration of the compound) was “morphological malformations”. In addition, the “activity against Spodoptera littoralis (in words)” value (compared with reference insecticide fenoxycarb) is on record as “active against Spodoptera littoralis”.
For `CCOC(=O)NCCOc1ccc(Oc2ccccc2)cc1` [Fenoxycarb, reference compound], the “LC50 (ppm)” value came out at 2.73 ppm (2nd instar larvae of S. littoralis) and 43.231 ppm (4th instar larvae of S. littoralis). Besides, the Toxic ratio is recorded as 100 (2nd instar larvae) and 1 (4th instar larvae).
